# Reference: patent US20230077199A1, “PALMITOYL TETRAPEPTIDE-20 CONJUGATED NANOSILVER PARTICLE AND USE THEREOF” (priority 2021, published 2023)
# Test system: B16F10 cells
# Assay: Measurement of melanin production
# Format: cell-based, murine
# Conditions: B16F10, 200 nM, single treatment
# Protocol: B16F10 are seeded in 24-well plates at the density of 8×10^4 cells/well and incubated for 24 hours at 37° C. with 5% CO2 atmosphere. After removing the used cell medium, the cells are treated with fresh cell culture medium (control group), 200 nM α-MSH (α-MSH group), combination of 200 nM α-MSH and various concentrations of palmitoyl tetrapeptide-20 conjugated nanosilver particle (α-MSH+sample group), and various concentrations of palmitoyl tetrapeptide-20 conjugated nanosilver particle (sample group), for 24 hours. After treatment, the treated solution in the well is removed with further incubation with fresh cell culture medium for 24 hours.
# The cells are washed twice with PBS. The cells are transferred into a 1.5 mL microtube and centrifuged at 10,000 rpm for 5 minutes to obtain cell pellets. Add 100 μL of solution (1 N NaOH containing 10% DMSO) to the pellet for 60 minutes at 80° C. to dissolve intracellular melanin. Extract 80 μL of dissolved melanin and place in 96-well plates, and melanin contents of control group and treatment group are determined by measuring the absorbance at 405 nm. The assay is repeated for three independent experiments. The equation for calculating melanin content is described as following: Total melanin content (%)=(A405 nm treatment group/A405 nm control group)×100%.
substance,measurement,value
α-melanocyte stimulating hormone [α-MSH],induction of melanin synthesis,effectively induce melanin synthesis
